Measured values as given in patent publication US20250230193A1, “CYCLIC COMPOUND HAVING SELECTIVE KRAS INHIBITORY EFFECT ON HRAS AND NRAS” (CHUGAI SEIYAKU KABUSHIKI KAISHA, priority 2022, published 2025).
Where a SMILES comes first, the peptide text is derived from it. Bridges are numbered along the chain shown (N, C = ends). [ ]: non-standard residue; d: D form. The star is where a group is joined. hPhe(3-Cl-4-CF3) = N[C@@H](CCc1ccc(C(F)(F)F)c(Cl)c1)C(=O)O; NPrPhe(4-CF3) = CCCN[C@@H](Cc1ccc(C(F)(F)F)cc1)C(=O)O; hPhe(3,4-Cl2) = N[C@@H](CCc1ccc(Cl)c(Cl)c1)C(=O)O; NMeGly(cPent) = CN[C@H](C(=O)O)C1CCCC1; NMeD = CN[C@@H](CC(=O)O)C(=O)O; NMeL = CN[C@@H](CC(C)C)C(=O)O; Morpholide = C1CN(*)CCO1; NMeA = CN[C@@H](C)C(=O)O; Ac5c = NC1(C(=O)O)CCCC1; Aze = O=C(O)[C@@H]1CCN1; Sar = CNCC(=O)O

Legend:
[1] = molecular target: GDP-bound NRAS wild-type protein (Homo sapiens, UniProt P01111); assay: Binding to NRAS by surface plasmon resonance (SPR), Single Cycle Kinetics; settings: KD ratio NRAS/KRAS; for NRAS/KRAS (ratio of KD value with respect to GDP-bound NRAS wild-type protein to KD value with respect to KRAS): class symbols; for NRAS/KRAS (ratio of KD for GDP-bound NRAS wild-type to KD for KRAS): SPR
Sequence of GDP-bound NRAS wild-type protein (P01111 whole entry): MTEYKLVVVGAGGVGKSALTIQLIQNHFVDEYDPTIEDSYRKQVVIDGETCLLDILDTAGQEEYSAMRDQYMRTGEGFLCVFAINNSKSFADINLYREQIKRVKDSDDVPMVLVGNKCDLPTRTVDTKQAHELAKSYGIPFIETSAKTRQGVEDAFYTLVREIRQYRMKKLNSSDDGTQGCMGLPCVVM

[2] = molecular target: GDP-bound HRAS wild-type protein (Homo sapiens, UniProt P01112); assay: Binding to HRAS by surface plasmon resonance (SPR), Single Cycle Kinetics; settings: KD ratio HRAS/KRAS; for HRAS/KRAS (ratio of KD value with respect to GDP-bound HRAS wild-type protein to KD value with respect to KRAS): class symbols; for HRAS/KRAS (ratio of KD for GDP-bound HRAS wild-type to KD for KRAS): SPR
Sequence of GDP-bound HRAS wild-type protein (P01112 whole entry): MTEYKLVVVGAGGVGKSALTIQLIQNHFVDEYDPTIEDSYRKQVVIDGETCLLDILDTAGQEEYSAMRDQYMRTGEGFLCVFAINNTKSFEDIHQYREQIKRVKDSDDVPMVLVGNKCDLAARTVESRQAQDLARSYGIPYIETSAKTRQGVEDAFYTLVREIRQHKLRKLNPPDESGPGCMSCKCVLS

SMILES	NRAS/KRAS (ratio of KD value with respect to GDP-bound NRAS wild-type protein to KD value with respect to KRAS) [1]	HRAS/KRAS (ratio of KD value with respect to GDP-bound HRAS wild-type protein to KD value with respect to KRAS) [2]	NRAS/KRAS (ratio of KD for GDP-bound NRAS wild-type to KD for KRAS) [1]	HRAS/KRAS (ratio of KD for GDP-bound HRAS wild-type to KD for KRAS) [2]
CCO[C@@H]1C[C@H]2C(=O)NC3(CC(C)(C)C3)C(=O)N(C)[C@@H](CC(C)(C)C)C(=O)N(C)[C@H](C(=O)N(C)C)CC(=O)N(C)[C@@H](COC)C(=O)N[C@@H]([C@@H](C)CC)C(=O)N(C3CC3)CC(=O)N(C)[C@H]3C/C=C\CCN(C3=O)[C@@H](Cc3ccc(C(F)(F)F)cc3)C(=O)N(C)CC(=O)N[C@@H](CCc3ccc(C(F)(F)F)c(OC)c3)C(=O)N2C1 [PP2748]	A (a compound having 10 or more and less than 20 is denoted as A)	A (a compound having 10 or more and less than 20 is denoted as A)	–	–
CCCN1C(=O)CN(C)C(=O)CN(C)C(=O)[C@H]([C@@H](C)CC)NC(=O)[C@H](CC(C)C)N(C)C(=O)C[C@@H](C(=O)N2CCOCC2)N(C)C(=O)[C@H](C2CCCC2)N(C)C(=O)C2(CCCC2)NC(=O)[C@@H]2CCCN2C(=O)[C@H](CCc2ccc(Cl)c(Cl)c2)NC(=O)CN(C)C(=O)[C@@H]1Cc1ccc(C(F)(F)F)cc1 [PP0232] ([NMeL]I[Sar][Sar][NPrPhe(4-CF3)][Sar][hPhe(3,4-Cl2)]P[Ac5c][NMeGly(cPent)][NMeD]-Morpholide; lactam N-11)	–	–	B (a compound having 3 or more and less than 10 is denoted as B)	B (a compound having 3 or more and less than 10 is denoted as B)
CCO[C@@H]1C[C@H]2C(=O)NC3(CCC3)C(=O)N(C)[C@@H](C3CCCC3)C(=O)N(C)[C@H](C(=O)N(C)CC)CC(=O)N(C)[C@@H](CC3CCC3)C(=O)N[C@@H]([C@@H](C)CC)C(=O)N(C)CC(=O)N(C)[C@H]3C/C=C\CCN(C3=O)[C@@H](Cc3ccc(C(F)(F)F)cc3)C(=O)N(C)CC(=O)N[C@@H](CCc3ccc(C(F)(F)F)c(Cl)c3)C(=O)N2C1 [PP2826]	A (a compound having 10 or more and less than 20 is denoted as A)	A (a compound having 10 or more and less than 20 is denoted as A)	–	–
CCC(CC)[C@H]1C(=O)N(C)[C@H](C(=O)N(C)C)CC(=O)N(C)[C@@H](COC)C(=O)N[C@@H]([C@@H](C)CC)C(=O)N(C)CC(=O)N(C)[C@H]2C/C=C\CCN(C2=O)[C@@H](Cc2ccc(C)cc2)C(=O)N(C)CC(=O)N[C@@H](CCc2ccc(C(F)(F)F)c(Cl)c2)C(=O)N2CC3(CC3)C[C@H]2C(=O)NC2(CC(C)(C)C2)C(=O)N1C [PP2967]	AA (a compound having 20 or more is denoted as AA)	A (a compound having 10 or more and less than 20 is denoted as A)	–	–
CCC[C@H]1C(=O)N[C@@H]([C@@H](C)CC)C(=O)N(C)CC(=O)N(C)[C@H]2C/C=C\CCN(C2=O)[C@@H](Cc2ccc(C(F)(F)F)cc2)C(=O)N(C)CC(=O)N[C@@H](CCc2ccc(C(F)(F)F)c(Cl)c2)C(=O)N2C[C@H](OCC)C[C@H]2C(=O)NC2(CC(C)(C)C2)C(=O)N(C)[C@@H](CC(C)(C)C)C(=O)N(C)[C@H](C(=O)N(C)C)CC(=O)N1C [PP2969]	AA (a compound having 20 or more is denoted as AA)	A (a compound having 10 or more and less than 20 is denoted as A)	–	–
CCCN1C(=O)CN(C)C(=O)[C@@H]2CCN2C(=O)[C@H]([C@@H](C)CC)NC(=O)[C@H](CC(C)C)N(C)C(=O)C[C@@H](C(=O)N(C)C)NC(=O)[C@H](C2CCCC2)N(C)C(=O)C2(CCCC2)NC(=O)[C@@H]2CCCN2C(=O)[C@H](CCc2ccc(C(F)(F)F)c(Cl)c2)NC(=O)CN(C)C(=O)[C@@H]1Cc1ccc(C(F)(F)F)cc1 [PP0373] ([NMeL]I[Aze][Sar][NPrPhe(4-CF3)][Sar][hPhe(3-Cl-4-CF3)]P[Ac5c][NMeGly(cPent)]D-NMe2; lactam N-11)	–	–	B (a compound having 3 or more and less than 10 is denoted as B)	B (a compound having 3 or more and less than 10 is denoted as B)
CCCN1C(=O)[C@@H]2CCN2C(=O)[C@H](C)N(C)C(=O)[C@H]([C@@H](C)CC)NC(=O)[C@H](CC(C)C)N(C)C(=O)C[C@@H](C(=O)N2CCOCC2)N(C)C(=O)[C@H](C2CCCC2)N(C)C(=O)C2(CCCC2)NC(=O)[C@@H]2CCCN2C(=O)[C@H](CCc2ccc(Cl)c(Cl)c2)NC(=O)CN(C)C(=O)[C@@H]1Cc1ccc(C(F)(F)F)cc1 [PP0227] ([NMeL]I[NMeA][Aze][NPrPhe(4-CF3)][Sar][hPhe(3,4-Cl2)]P[Ac5c][NMeGly(cPent)][NMeD]-Morpholide; lactam N-11)	–	–	C (A compound having a KD ratio of 0.1 or more and less than 3 is denoted as C)	B (a compound having 3 or more and less than 10 is denoted as B)
